Measurements taken from ChEMBL document CHEMBL2380255, “Dual targeting of adenosine A(2A) receptors and monoamine oxidase B by 4H-3,1-benzothiazin-4-ones” (J Med Chem, 2013).

How the values were obtained:
[1] = Selectivity ratio of IC50 for MAO-B in mitochondria-enriched Sprague-Dawley rat liver fractions to IC50 for recombinant human MAO-B
Adenosine receptor A2b = biological target: T1, Adenosine receptor A2b (Homo sapiens, UniProt P29275); test: Displacement of [3H]PSB-603 from human recombinant adenosine A2B receptor expressed in CHO cells after 75 mins by liquid scintillation counting analysis; format: cell-based
T1 sequence (P29275 whole entry): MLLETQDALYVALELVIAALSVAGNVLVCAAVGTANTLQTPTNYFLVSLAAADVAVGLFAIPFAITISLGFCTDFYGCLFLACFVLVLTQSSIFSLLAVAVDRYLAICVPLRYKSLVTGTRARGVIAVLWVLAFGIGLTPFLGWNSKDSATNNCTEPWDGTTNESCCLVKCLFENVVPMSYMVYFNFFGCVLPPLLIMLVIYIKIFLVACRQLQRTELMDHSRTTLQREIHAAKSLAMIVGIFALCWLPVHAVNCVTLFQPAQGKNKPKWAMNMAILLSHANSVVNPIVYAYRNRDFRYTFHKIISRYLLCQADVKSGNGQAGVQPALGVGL

[2] = biological target: T2, Amine oxidase [flavin-containing] B (Homo sapiens, UniProt P27338); test: Inhibition of recombinant human MAO-B expressed in baculovirus-infected insect cells using p-tyramine as substrate incubated for 30 mins prior to substrate addition measured for 45 mins by amplex red reagent-based microplate fluorescence reader analysis; format: cell-based
T2 sequence (P27338 whole entry): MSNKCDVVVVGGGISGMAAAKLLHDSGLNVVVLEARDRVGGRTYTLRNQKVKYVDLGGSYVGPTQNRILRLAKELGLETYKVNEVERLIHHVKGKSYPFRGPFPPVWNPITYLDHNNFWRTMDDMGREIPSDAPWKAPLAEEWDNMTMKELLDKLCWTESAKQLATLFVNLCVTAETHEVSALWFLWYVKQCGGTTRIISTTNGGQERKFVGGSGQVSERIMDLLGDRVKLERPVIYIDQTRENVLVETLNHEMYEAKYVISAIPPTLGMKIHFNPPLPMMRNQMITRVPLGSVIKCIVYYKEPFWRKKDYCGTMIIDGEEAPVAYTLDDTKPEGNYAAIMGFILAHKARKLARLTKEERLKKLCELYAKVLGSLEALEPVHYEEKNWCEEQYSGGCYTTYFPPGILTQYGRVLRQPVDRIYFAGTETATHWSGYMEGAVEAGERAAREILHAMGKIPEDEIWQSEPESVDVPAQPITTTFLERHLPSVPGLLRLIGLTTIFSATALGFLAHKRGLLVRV

Adenosine receptor A3 = biological target: T3, Adenosine receptor A3 (Homo sapiens, UniProt P0DMS8); test: Displacement of [3H]PSB-11 from human recombinant adenosine A3 receptor expressed in CHO cells after 60 mins by liquid scintillation counting analysis; format: cell-based
T3 sequence (P0DMS8 whole entry): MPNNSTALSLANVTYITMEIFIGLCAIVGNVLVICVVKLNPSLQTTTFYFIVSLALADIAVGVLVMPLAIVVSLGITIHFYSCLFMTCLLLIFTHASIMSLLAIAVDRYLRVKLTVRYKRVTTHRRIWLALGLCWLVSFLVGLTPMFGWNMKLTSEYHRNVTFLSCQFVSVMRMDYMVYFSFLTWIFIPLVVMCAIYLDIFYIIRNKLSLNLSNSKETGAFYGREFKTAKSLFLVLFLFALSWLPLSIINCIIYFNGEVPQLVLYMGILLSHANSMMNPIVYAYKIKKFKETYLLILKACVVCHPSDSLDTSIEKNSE

[3] = biological target: T4, Amine oxidase [flavin-containing] B (Rattus norvegicus, UniProt P19643); test: Inhibition of MAO-B in mitochondria-enriched Sprague-Dawley rat liver fractions using p-tyramine as substrate incubated for 30 mins prior to substrate addition measured for 45 mins by amplex red reagent-based microplate fluorescence reader analysis
T4 sequence (P19643 whole entry): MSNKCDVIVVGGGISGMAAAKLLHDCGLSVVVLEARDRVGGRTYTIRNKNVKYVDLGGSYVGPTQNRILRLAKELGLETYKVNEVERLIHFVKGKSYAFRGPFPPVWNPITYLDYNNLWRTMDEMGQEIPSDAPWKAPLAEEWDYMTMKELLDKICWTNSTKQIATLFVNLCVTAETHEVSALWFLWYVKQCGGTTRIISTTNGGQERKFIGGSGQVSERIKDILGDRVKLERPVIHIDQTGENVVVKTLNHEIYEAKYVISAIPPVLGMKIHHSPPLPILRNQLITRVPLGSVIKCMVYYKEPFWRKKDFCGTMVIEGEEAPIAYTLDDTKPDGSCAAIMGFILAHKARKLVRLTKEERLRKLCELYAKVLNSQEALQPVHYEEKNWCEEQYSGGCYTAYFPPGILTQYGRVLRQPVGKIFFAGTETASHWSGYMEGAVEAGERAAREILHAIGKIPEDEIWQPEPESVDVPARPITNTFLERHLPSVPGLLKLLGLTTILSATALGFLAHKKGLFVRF

Adenosine receptor A1 [4] = biological target: T5, Adenosine receptor A1 (Rattus norvegicus, UniProt P25099); test: Displacement of [3H]CCPA from adenosine A1 receptor in rat brain cortical membranes after 90 mins by liquid scintillation counting analysis; format: cell membranes, Membrane
T5 sequence (P25099 whole entry): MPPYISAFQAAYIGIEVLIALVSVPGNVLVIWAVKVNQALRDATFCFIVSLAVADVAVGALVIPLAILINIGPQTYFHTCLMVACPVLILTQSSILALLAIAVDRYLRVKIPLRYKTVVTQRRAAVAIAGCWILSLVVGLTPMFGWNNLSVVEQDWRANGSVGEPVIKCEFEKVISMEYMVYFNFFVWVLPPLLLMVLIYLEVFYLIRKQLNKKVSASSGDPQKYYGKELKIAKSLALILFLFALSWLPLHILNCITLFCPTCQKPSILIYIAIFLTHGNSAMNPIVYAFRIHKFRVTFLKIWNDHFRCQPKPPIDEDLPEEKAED

Adenosine receptor A2a [5] = biological target: Adenosine receptor A2a (Rattus norvegicus, UniProt P30543); test: Displacement of [3H]MSX2 from adenosine A2A receptor in rat brain striatal membranes after 30 mins by liquid scintillation counting analysis; format: cell membranes, Membrane
Adenosine receptor A2a [6] = biological target: Adenosine receptor A2a (Homo sapiens, UniProt P29274); test: Displacement of [3H]MSX2 from human recombinant adenosine A2A receptor expressed in CHO cells after 30 mins by liquid scintillation counting analysis; format: cell-based
Adenosine receptor A1 [7] = biological target: T6, Adenosine receptor A1 (Homo sapiens, UniProt P30542); test: Displacement of [3H]CCPA from human recombinant adenosine A1 receptor expressed in CHO cells after 90 mins by liquid scintillation counting analysis; format: cell-based
T6 sequence (P30542 whole entry): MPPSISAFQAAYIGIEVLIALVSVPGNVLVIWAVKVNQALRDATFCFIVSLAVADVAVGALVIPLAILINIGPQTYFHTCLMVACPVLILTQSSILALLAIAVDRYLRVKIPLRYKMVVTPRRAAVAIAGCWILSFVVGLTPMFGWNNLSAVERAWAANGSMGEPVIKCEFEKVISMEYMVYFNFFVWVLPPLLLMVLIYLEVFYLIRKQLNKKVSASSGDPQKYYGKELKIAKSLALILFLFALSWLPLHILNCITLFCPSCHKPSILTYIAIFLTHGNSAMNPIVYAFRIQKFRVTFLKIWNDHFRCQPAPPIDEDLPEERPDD

Homo sapiens [8] = organism: Homo sapiens; test: Selectivity ratio of Ki for human recombinant adenosine A3 receptor to Ki for human recombinant adenosine A2A receptor
Homo sapiens [9] = organism: Homo sapiens; test: Selectivity ratio of Ki for human recombinant adenosine A2B receptor to Ki for human recombinant adenosine A2A receptor

Chain of Adenosine receptor A2a (Homo sapiens, UniProt P29274) (P29274 whole entry): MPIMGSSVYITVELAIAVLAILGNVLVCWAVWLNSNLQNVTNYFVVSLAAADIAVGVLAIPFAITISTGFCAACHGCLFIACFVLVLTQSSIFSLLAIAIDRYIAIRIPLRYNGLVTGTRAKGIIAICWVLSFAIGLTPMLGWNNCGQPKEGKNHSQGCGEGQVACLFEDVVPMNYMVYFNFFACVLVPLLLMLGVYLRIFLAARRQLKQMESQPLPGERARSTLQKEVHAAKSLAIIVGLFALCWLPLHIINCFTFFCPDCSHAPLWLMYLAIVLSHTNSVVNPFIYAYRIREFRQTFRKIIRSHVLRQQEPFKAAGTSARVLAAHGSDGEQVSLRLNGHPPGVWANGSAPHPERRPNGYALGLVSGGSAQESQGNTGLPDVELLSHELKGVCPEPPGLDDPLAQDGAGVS
Chain of Adenosine receptor A2a (Rattus norvegicus, UniProt P30543) (P30543 whole entry): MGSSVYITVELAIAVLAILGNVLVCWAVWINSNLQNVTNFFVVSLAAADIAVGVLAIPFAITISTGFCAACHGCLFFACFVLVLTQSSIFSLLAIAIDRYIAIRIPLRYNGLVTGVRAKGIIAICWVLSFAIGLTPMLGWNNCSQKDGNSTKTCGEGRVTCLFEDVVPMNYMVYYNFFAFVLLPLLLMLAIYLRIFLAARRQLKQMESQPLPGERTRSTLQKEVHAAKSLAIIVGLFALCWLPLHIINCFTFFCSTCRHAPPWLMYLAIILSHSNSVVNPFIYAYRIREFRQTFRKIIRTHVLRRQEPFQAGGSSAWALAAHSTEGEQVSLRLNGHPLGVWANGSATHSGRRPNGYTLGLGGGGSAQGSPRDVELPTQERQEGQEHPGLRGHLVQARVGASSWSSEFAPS

Row | SMILES | Ratio IC50 [1] | Ki (Adenosine receptor A2b) [nM] | IC50 [2] [nM] | Ki (Adenosine receptor A3) [nM] | IC50 [3] [nM] | Ki (Adenosine receptor A1 [4]) [nM] | Ki (Adenosine receptor A2a [5]) [nM] | Ki (Adenosine receptor A2a [6]) [nM] | Ki (Adenosine receptor A1 [7]) [nM] | Ratio Ki (Homo sapiens [8]) | Ratio Ki (Homo sapiens [9])
1 | O=C(CCCc1ccccc1)Nc1nc2ccc(Br)cc2c(=O)s1 | 1.4 | > 1000 | > 10000 | > 1000 | > 10000 | > 10000 | > 10000 | – | – | – | –
2 | CN(C(=O)CCCc1ccccc1)c1nc2ccccc2c(=O)s1 | 1.4 | > 1000 | 53.1 | > 1000 | – | > 10000 | > 10000 | > 10000 | – | – | –
3 | O=C(Nc1nc2ccccc2c(=O)s1)c1ccc(C(=O)N2CCN(Cc3ccccc3)CC2)cc1 | 1.4 | – | > 10000 | – | – | – | – | – | – | – | –
4 | O=C(Nc1nc2ccccc2c(=O)s1)c1ccccc1 | 1.4 | – | – | – | > 10000 | – | – | – | – | – | –
5 | Cc1ccc2nc(NC(=O)CCCc3ccccc3)sc(=O)c2c1 | 1.4 | 408 | 94 | 147 | 325 | 98.3 | 6060 | – | 1000 | – | –
6 | O=C(CCc1ccccc1Br)Nc1nc2ccccc2c(=O)s1 | 31 | > 1000 | 2.09 | > 1000 | 64 | > 10000 | > 10000 | – | – | – | –
7 | O=C(CCCc1ccccc1)Nc1nc2ccc(Cl)cc2c(=O)s1 | 1.4 | > 1000 | > 10000 | > 1000 | > 10000 | > 10000 | > 10000 | – | – | – | –
8 | O=C(CCc1ccc(Cl)c(Cl)c1)Nc1nc2ccccc2c(=O)s1 | 1.4 | > 1000 | > 10000 | > 1000 | > 10000 | > 1500 | > 10000 | – | – | – | –
9 | COc1cccc(/C=C/C(=O)Nc2nc3ccccc3c(=O)s2)c1 | – | 679 | 470 | > 1000 | 281 | 205 | 253 | 62.4 | > 10000 | > 16 | 10
10 | O=C(CCc1ccccc1F)Nc1nc2ccccc2c(=O)s1 | 65 | 801 | 11.2 | ≥ 1000 | 725 | > 10000 | 2190 | – | – | – | –
11 | O=C(CCCc1cccc(Cl)c1)Nc1nc2ccccc2c(=O)s1 | 1.4 | ≥ 1000 | > 1000 | > 1000 | 6880 | 898 | > 10000 | – | > 10000 | – | –
12 | COCCOc1ccc(N2CCN(CCn3ncc4c3nc(N)n3nc(-c5ccco5)nc43)CC2)cc1 [PRELADENANT] | – | > 1000 | – | > 1000 | – | 68.7 | 0.66 | 0.884 | 295 | – | –

Further lines, results first:

Row | Ratio IC50 [1] | Ki (Adenosine receptor A2b) [nM] | IC50 [2] [nM] | Ki (Adenosine receptor A3) [nM] | IC50 [3] [nM] | Ki (Adenosine receptor A1 [4]) [nM] | Ki (Adenosine receptor A2a [5]) [nM] | Ki (Adenosine receptor A2a [6]) [nM] | Ki (Adenosine receptor A1 [7]) [nM] | Ratio Ki (Homo sapiens [8]) | Ratio Ki (Homo sapiens [9]) | SMILES
13 | 1.4 | 302 | 389 | 382 | 1300 | 22.5 | 558 | 115 | 214 | – | – | COc1cccc(CCCC(=O)Nc2nc3ccccc3c(=O)s2)c1
14 | 1.4 | 547 | 206 | > 1000 | 298 | ≥ 10000 | > 10000 | – | – | – | – | O=C(CCCc1ccccc1)Nc1nc2ccsc2c(=O)s1
15 | 1.4 | > 1000 | 93.3 | > 1000 | 815 | ≥ 10000 | > 10000 | > 1000 | – | – | – | O=C(/C=C/c1cccc(Cl)c1)Nc1nc2ccccc2c(=O)s1
16 | 1.4 | > 1000 | > 10000 | > 1000 | – | – | > 10000 | > 1000 | > 1000 | – | – | O=C(Nc1nc2ccccc2c(=O)s1)c1ccc(C(=O)N2CCN(Cc3ccccc3Cl)CC2)cc1
17 | 1.4 | > 1000 | 9.8 | > 1000 | 26.6 | > 10000 | > 10000 | – | – | – | – | Cc1sc2nc(NC(=O)CCCc3ccccc3)sc(=O)c2c1C
18 | – | > 1000 | 3440 | > 1000 | 3300 | > 1500 | > 10000 | – | – | – | – | O=C(CCCc1ccc(Cl)c(Cl)c1)Nc1nc2ccccc2c(=O)s1
19 | 1.4 | > 1000 | 76.4 | 91.6 | 1220 | 64.4 | ≥ 10000 | – | 785 | – | – | O=C(CCCc1ccccc1)Nc1nc2cc(Cl)ccc2c(=O)s1
20 | – | > 1000 | > 10000 | > 1000 | 4640 | ≥ 1500 | > 1000 | – | – | – | – | O=C(C/C=C/c1ccc(Cl)c(Cl)c1)Nc1nc2ccccc2c(=O)s1
21 | 1.4 | > 1000 | > 10000 | > 1000 | – | – | 84.7 | 58.3 | > 1000 | – | – | O=C(Nc1nc2ccccc2c(=O)s1)c1ccc(C(=O)N2CCN(Cc3cccc(Cl)c3)CC2)cc1
22 | 1.4 | > 1000 | 43.7 | > 1000 | 73.9 | > 10000 | 1720 | ≥ 1000 | – | – | – | COc1cccc(C#CC(=O)Nc2nc3ccccc3c(=O)s2)c1
23 | 1.4 | 119 | 39.8 | 158 | 361 | 53 | 814 | 118 | 822 | – | – | O=C(C/C=C/c1ccccc1)Nc1nc2ccccc2c(=O)s1
